Consider 12 molecules from US8853234B2, “Quinolone analogs and methods related thereto” (Senhwa Biosciences, Inc., priority 2007, dated 2014).

Read-outs that look alike come from different tables or passages of the source.

The assay relates to a variety of cell types that are representative of different cancers. The assay can be described thus: Alamar Blue cell viability assay, variety of cell types representative of different cancers (Tables 12-14). Type of assay: cell-based. The note with it: Homo sapiens. The procedure: A representative cell-proliferation assay protocol using Alamar Blue dye (stored at 4° C., use 20 ul per well) is described hereafter.
96-Well Plate Setup and Compound Treatment
a. Split and trypsinize cells.
b. Count cells using hemocytometer.
c. Plate 4,000-5,000 cells per well in 100 μl of medium and seed into a 96-well plate according to the following plate layout. Add cell culture medium only to wells B10 to B12. Wells B1 to B9 have cells but no compound added.
d. Add 100 μl of 2× drug dilution to each well in a concentration shown in the plate layout above. At the same time, add 100 μl of media into the control wells (wells B10 to B12). Total volume is 200 μl/well.
e. Incubate four (4) days at 37° C., 5% CO2 in a humidified incubator.
f. Add 20 μl Alamar Blue reagent to each well.
g. Incubate for four (4) hours at 37° C., 5% CO2 in a humidified incubator.
h. Record fluorescence at an excitation wavelength of 544 nm and emission wavelength of 590 nm using a microplate reader.
In the assays, cells are cultured with a test compound for approximately four days, the dye then is added to the cells and fluorescence of […] dye is detected after approximately four hours. Different types of cells can be utilized in the assays (e.g., HCT-116 human colorectal carcinoma cells, PC-3 human prostatic cancer cells and MiaPaca human pancreatic carcinoma cells). Anti-proliferative effects of representative compounds are provided hereafter.
Inhibitory activity on cell proliferation of Compounds A1, A2 and A3 was determined using an Alamar Blue cell viability assay (e.g., Example 39 herein) using a variety of cell types that are representative of different cancers Inhibition values (IC50) are presented in micromolar concentrations in the following table (Table 12).
Inhibitory activity on cell proliferation of representative compounds of the invention was determined using an Alamar Blue cell viability assay (e.g., Example 39 herein) using a variety of cell types that are representative of different cancers Inhibition values (IC50) are presented in micromolar concentrations in Table 13 and Table 14.

[1] abbreviates: HCT-116, HCT-116 cells, Table 13, read-out: AB: HCT-116 (IC50).
Where [2] appears, read: K562, K-562 cells, Table 13, read-out: AB: K-562 (IC50).
Where [3] appears, read: MV4-11, MV-4-11 cells, Table 13, read-out: AB: MV-4-11 (IC50).
Where [4] appears, read: PC-3, PC3 cells, Table 13, read-out: AB: PC3 (IC50).
Setting [5] is: K562, K-562 cells, Table 14, read-out: AB: K-562 (IC50).
Setting [6] is: MIA PaCa-2, MiaPaCa cells, Table 14, read-out: AB: MiaPaCa (IC50).
Setting [7] is: MV4-11, MV-4-11 cells, Table 14, read-out: AB: MV-4-11 (IC50).
The mark [8] stands for this setting: PC-3, PC3 cells, Table 14, read-out: AB: PC3 (IC50).
The mark [9] stands for this setting: THP-1, THP-1 cells, Table 14, read-out: AB: THP-1 (IC50).

As for `O=C(NC1CC1)c1c(=O)c2ccc(NCC(O)c3ccccc3)nc2n2c1sc1ccccc12` (stereo not shown), the half-inhibitory concentration (IC50) was more than 10 µM under setting [1], more than 10 µM under setting [2], more than 10 µM under setting [3] and more than 10 µM under setting [4].

For the molecule `COCCNC(=O)c1c(=O)c2ccc(NCC(O)c3ccccc3)nc2n2c1sc1ccccc12` (stereo not shown), the IC50 under setting [1] is 0.133 µM and the 50% inhibitory concentration (IC50) under setting [4] is 3.74 µM.

Take `CN1CCN(C(=O)c2c(=O)c3ccc(NCC(O)c4ccccc4)nc3n3c2sc2ccccc23)CC1` (stereo not shown): the IC50 under setting [1] was 2.51 µM, the IC50 under setting [2] was 3.13 µM, the 50% inhibitory concentration (IC50) under setting [3] came out at 0.543 µM and the IC50 under setting [4] stood at 6.67 µM.

Regarding `CN1CCCCC1CNC(=O)c1c(=O)c2ccc(NCC(O)c3ccccc3)nc2n2c1sc1ccccc12` (stereo not shown), the 50% inhibitory concentration (IC50) was determined as 0.267 µM under setting [1] and 0.633 µM under setting [4].

Turning to `O=C(NCC1CC1)c1c(=O)c2ccc(NCC(O)c3ccccc3)nc2n2c1sc1ccccc12` (stereo not shown), the half-maximal inhibitory concentration (IC50) runs as follows: under setting [1], more than 10 µM; under setting [2], more than 10 µM; under setting [3], 5.03 µM; under setting [4], 6.08 µM.

Regarding `CN1CCCN(c2nc3c(cc2F)c(=O)c(C(=O)NCc2ccccn2)c2sc4ccccc4n23)CC1`, the IC50 runs as follows: under setting [5], 0.118 µM; under setting [6], 0.941 µM; under setting [7], 0.043 µM; under setting [8], 7.77 µM; under setting [9], 1.33 µM.

As to `CN1CCCN(c2nc3c(cc2F)c(=O)c(C(=O)NCc2cccnc2)c2sc4ccccc4n23)CC1`, the IC50 under setting [5] stood at 0.032 µM; the IC50 under setting [6] was determined as 0.133 µM; the IC50 under setting [7] is less than 0.03 µM; the IC50 under setting [8] was 2.48 µM; the concentration for half-maximal inhibition (IC50) under setting [9] is 0.356 µM.

As for `CN1CCCN(c2nc3c(cc2F)c(=O)c(C(=O)NCc2ccncc2)c2sc4ccccc4n23)CC1`, the IC50 is 0.095 µM under setting [5]; 0.131 µM under setting [6]; less than 0.03 µM under setting [7]; 6.59 µM under setting [8]; 1.06 µM under setting [9].

`CN1CCCN(c2nc3c(cc2F)c(=O)c(C(=O)N2CCOCC2)c2sc4ccccc4n23)CC1`: the half-maximal inhibitory concentration (IC50) under setting [5] is 0.11 µM; the IC50 under setting [6] was determined as 0.352 µM; the 50% inhibitory concentration (IC50) under setting [7] was less than 0.03 µM; the half-inhibitory concentration (IC50) under setting [8] was found to be 1.21 µM; the IC50 under setting [9] came out at 0.59 µM.

For `CN1CCCN(c2nc3c(cc2F)c(=O)c(C(=O)NN2CCOCC2)c2sc4ccccc4n23)CC1`, the IC50 runs as follows: under setting [5], 0.267 µM; under setting [6], 0.359 µM; under setting [7], 0.124 µM; under setting [8], 1.8 µM; under setting [9], 1.32 µM.

As to `CN1CCCN(c2nc3c(cc2F)c(=O)c(C(=O)NCCCO)c2sc4ccccc4n23)CC1`, the IC50 under setting [5] is 0.051 µM; the half-inhibitory concentration (IC50) under setting [6] is less than 0.12 µM; the 50% inhibitory concentration (IC50) under setting [7] was found to be 0.032 µM; the IC50 under setting [8] turned out to be 2.65 µM; the IC50 under setting [9] stood at 0.571 µM.

`Cc1cnc(CNC(=O)c2c(=O)c3ccc(N4CCCNCC4)nc3n3c2sc2ccccc23)cn1`: the IC50 turned out to be 0.101 µM under setting [5], 0.637 µM under setting [6] and 0.084 µM under setting [7].
